Marks after values point to notes of the source that are not given here.
How the values were obtained:
rabbit papillary muscle = test: Contractile force of heart: rabbit right ventricular papillary muscle; settings: for amplitude % (contractile force, % of control): cumulative addition, 15-20 min incubation; for inotropic effect (in words): between 10^−6 and 10^−4 molar range
Excerpt: Effect of racemic 5,6-dihydro-5-(1-piperidinyl)-methyl-3-(3-pyridyl)4H-1,2,4-oxadiazine and its (−) and (+) enantiomers on the contractile force of heart
New Zealand white rabbits (male, 2-3 kg) were killed by a blow on the nape. The hearts were rapidly removed after opening the chest. Right ventricular papillary muscles were dissected and mounted in organ holding chambers and pre-tension of 0.5 g was applied. The superfusate contained (in mM) 120 NaCl, 5.4 KCl, 2.7 CaCl2, 1.1 MgCl2, 1.1 NaH2PO4, 24.0 NaHCO3 and 11.0 glucose. The pH of this superfusate was 7.4 at 37° C. when gassed with 95% O2 and 5% CO2. Stimulation and measurements were carried out by Isosys System of Experimetria, Budapest, Hungary. The preparations were paced by 1-ms-wide isolated constant voltage at a cycle length of 1000 ms. The amplitudes of the pulses were equal to twice as high as the diastolic threshold value, delivered through a pair of platinum electrodes. Before the start of the measurements the preparation was equilibrated for 60 min to allow the stabilization of its mechanical parameters. The drugs were added to the organ bath cumulatively, without washing out. Period of the incubation was 15-20 min. Measured parameters were: resting force (mg) and changes in the amplitude of contractile force (mg) which was expressed in % of the control.

[1] = system: coronary flow responses to serotonin (5-HT) in hearts from spontaneously hypertensive (SH) rats; test: Langendorff perfused rat heart: endothelial function before and after ischemia; settings: for postischemic coronary response in percentage of the preischemic vasodilator response: 10^−6 M drug in perfusate, 10^−7 M 5-HT, 10 min global ischemia, SH rat heart
Experimental: Langendorff Perfused Rat Heart
Protocol for Assesment of Endothelial Function Before and After Ischemia
Rats were heparinised with i.p. heparin sodium (2500 IU) and anesthetized with i.p. pentobarbital (60 mg/kg). Hearts from spontaneously hypertensive (SH) rats were quickly removed and immediately perfused via the aorta using a gravity-flow, non-recirculating Langendorff apparatus (Experimetria Ltd) at a constant perfusion pressure (100 cm H2O) with Krebs-Henseleit Solution (KHS) containing in mM: NaCl 120; KCl 5.4; CaCl2 2.7; MgCl2 1.1; NaHCO3 24; D-glucose 11. The KHS was gassed with carbogen (95% O2; 5% CO2) resulting pH 7.4.
We used the so-called non-working heart model and measured the mean coronary flow by a transonic flow meter (Type T206, Transonic Systems Inc.). The flow probe was placed above the aortic cannula. Coronary flow was monitored throughout the experiment and registered by a potentiometric recorder. Hearts were allowed to beat spontaneously throughout the experiment. After 20-30 min of equilibration period the coronary flow reached a baseline value.
Endothelial function was assessed through observations of preischemic and postischemic coronary flow responses to serotonin (5-HT). In response to serotonin, the progress of dilatation of coronary artery depends on the soundness of the endothelium.
The Langendorff infusion was switched to the another column containing additional 10^−7 M serotonin (5-HT, Sigma Chemical Co.). The ensuing dilatation of coronary artery was monitored and when the steady state had been reached the 5-HT was washed out by switching back to the ordinary KHS. The heart was then subjected to a global ischemia for 10 min by the clamping the aortic cannula. At the end of the ischemic period, the heart was reperfused. When the baseline coronary flow had been reestablished, the heart was again subjected to the same protocol of sequential infusion of 5-HT and KHS as in the preischemic period. Control hearts were perfused with pure KHS and the hearts of the another three groups were perfused with KHS containing additional 10^−6 M racemic 5,6-dihydro-5-(1-piperidinyl)-methyl-3-(3-pyridyl)4H-1,2,4-oxadiazine, (−)-5,6-dihydro-5-(1-piperidinyl)-methyl-3-(3-pyridyl)4H-1,2,4-oxadiazine and (+)-5,6-dihydro-5-(1-piperidinyl)-methyl-3-(3-pyridyl)4H-1,2,4-oxadiazine, respectively. 20-30 min after the onset of hemodynamic stability, perfusion of the drugs were initiated and continued until reperfusion with the exception of the occlusion period.
The potischemic coronary responses are expressed in percentage of the preischemic vasodilator responses.

[2] = system: spontaneously hypertensive rats; test: Myocardial infarction in spontaneously hypertensive rats (coronary occlusion/reperfusion); format: in vivo, rat; settings: SH rats; for Survival (%) / Infarcted area (%): oral 6 hours before occlusion (100 mg/kg), 1 h occlusion, 1 h reperfusion; for Infarcted area (%): percentage of left ventricle
Experimental: Myocardial Infarction in Spontaneously Hypertensive Rats
Myocardial ischemia was induced by a temporary occlusion of the main left coronary artery, according to Griswold et al (J. Pharmacol. Methods 1988, 20: 225-235). SH rats were anaesthetized with sodium pentobarbital (60 mg/kg i.p.). After tracheotomy, the animals were ventilated with room air by a respirator for small rodents (model: Harvard 552), with a stroke volume of 1,5-2 ml/100 g and a rate of 55 strokes/min to maintain normal pO2, pCO2 and pH parameters. The right carotid artery was catheterized and connected to a pressure transducer (P236B Stetham) for the measurement of systemic arterial blood pressure (BP) by means of a preamplifier (Hg-O2D Experimetria®). Heart rate (HR) was measured by a cardiotachometer (HR-01, Experimetria®). The electrocardiogram (ECG standard lead III) was recorded on a devices recorder (ER- 14, Micromed®) by means of subcutaneous steel needle electrodes. The chest was opened by a left thoracotomy and the heart was exteriorized by a gentle pressure on the right side of the rib cage. A 4/0 silk ligature was quickly placed under the main left coronary artery. The heart was replaced in the chest and the animal left to recover. Rectal temperature was monitored and was maintained constant at 37° C. The experiment was initiated with a 15 min stabilization period during which the observation of a sustained blood pressure less than 70 mmHg and/or the occurrence of arrhythmias lead to exclusion. Myocardial ischemia was induced with coronary artery occlusion for 1 h and reperfusion allowed for 1 hour. The drugs were administered orally 6 hours before occlusion.
Quantification of Myocardial Infarction
At the end of experiment, the heart was quickly removed. The left ventricle was then sliced into 2 mm thick sections parallel to the atrioventricular groove. The slices were incubated in a 0.1% solution of p-Nitroblue Tetrazolium (NBT) grade III, pH 7,4 for 15 min. The non-infarcted area was colored blue due to formation of a precipitate that results from reaction of NBT with dehydrogenase enzymes. Loss of these enzymes in the infarcted myocardium prevents the formation of the precipitate; thus, the infarcted area within the risk region remains pale yellow. The necrotic area was determined using computerized image analysis (COLIM, Pictron Kft), and was expressed as a percentage of the left ventricle.

[3] = acute single oral 100 mg/kg 6 hours before occlusion

| SMILES | amplitude % (contractile force, % of control) (rabbit papillary muscle; 10^−4 M) [%] | amplitude % (contractile force, % of control) (rabbit papillary muscle; 10^−5 M) [%] | amplitude % (contractile force, % of control) (rabbit papillary muscle; 10^−6 M) [%] | inotropic effect (in words) (rabbit papillary muscle) | postischemic coronary response in percentage of the preischemic vasodilator response [1] [%] | Survival (%) [2] | Infarcted area (%) [2] [%] | endothelial function after ischemia (in words) ([1]; 10^−6 M, 10 min of global ischemia) | myocardial infarct size (in words) [2, 3] | survival rate (in words) [2, 3] |
| --- | --- | --- | --- | --- | --- | --- | --- | --- | --- | --- |
| c1cncc(C2=NOCC(CN3CCCCC3)N2)c1 (racemic) [racemic compound, 5,6-dihydro-5-(1-piperidinyl)-methyl-3-(3-pyridyl)4H-1,2,4-oxadiazine, reference compound] | 83.7 ± 3.3 | 87.1 ± 3.5 | 92.6 ± 5.08 | negative inotropic effect | 63.08 ± 11.7 | 70.0% | 27.2 ± 5.8 |  |  |  |
| c1cncc(C2=NOCC(CN3CCCCC3)N2)c1 (single isomer, unassigned; (+)) [(+) enantiomer, (+)-5,6-dihydro-5-(1-piperidinyl)-methyl-3-(3-pyridyl)4H-1,2,4-oxadiazine] | 78.4 ± 5.0 | 79.5 ± 5.6 | 90.1 ± 3.5 | negative inotropic effect | 49.78 ± 9.9 | 75.0% | 34.5 ± 4.6 |  |  |  |
| c1cncc(C2=NOCC(CN3CCCCC3)N2)c1 (single isomer, unassigned; (-)) [(−) enantiomer, (−)-5,6-dihydro-5-(1-piperidinyl)-methyl-3-(3-pyridyl)4H-1,2,4-oxadiazine] | 142.5 ± 4.8 | 132.8 ± 5.0 | 126.6 ± 5.3 | positive inotropic effect | 88.41 ± 10.9 | 100.0** % | 7.1 ± 2.5 | preserved endothelial function | significantly reduced myocardial infarct size | increased survival rate |
